The text below walks through data of patent US9139575B2, “Broad spectrum antiviral and antiparasitic agents” (priority 2010, dated 2015).

One data set relates to NDV. Briefly: microbe, parasite or virus in culture. In kind it is cell-based, Newcastle disease virus. As to conditions: for IC50: read-out: IC50 ± STD (nM) (N = x) NDV.
The nature of data set [1]: Absorption spectra of compounds in DMSO. The format is physicochemical. As to conditions: for Abs Max: 100 μM in DMSO; for Relative integrated area from 400 to 700 nm: area under absorption curve, JL001 = 100.
A further data set relates to HIV. Briefly: Inhibition of HIV infection (Table 1). In kind it is cell-based, human immunodeficiency virus.
The next data set has as its system HSV. Briefly: Inhibition of HSV infection (Table 1). In kind it is cell-based, herpes simplex virus. The settings on record: for IC50: read-out: IC50 ± STD (nM) (N = x) HSV.
The nature of data set [2]: KT rate constant (Table 1). In kind it is physicochemical. As to conditions: values are KT × 10^−7.
In a further data set the test system is Toxoplasma gondii. Briefly: Toxoplasma gondii attachment and invasion of HFFs. The format is cell-based. The settings on record: 10 μM, normalized to DMSO control, preliminary.
The subject of another data set is HIV (IIIB). Briefly: HIV inactivation in packed red blood cells, TZM-BL luciferase readout. The format is cell-based, human immunodeficiency virus. As to conditions: 100 μM, 1 h white light, hematocrit 80%.
In data set [3] the test system is lipid-enveloped viruses. The settings on record: reference [1], cited from earlier work.
The nature of data set [4]: Clinical observations after single dose in PK study. As to conditions: for toxicity in vivo compared to the rhodanine derivatives: gavage, intravenous or intraperitoneal administration in mice.
Data set [5] in a line: Pharmacokinetic profile after single po, ip or iv administration. As to conditions: for bioavailability: female, Balb/c, mouse, plasma.
Another data set has as its system Hela cells. Briefly: Cytotoxicity by MTT assay in dark or under light. In kind it is cell-based. As to conditions: Homo sapiens, exposed for 1 hour to light, MTT 24 hours later, read-out: concentration triggering death of 50% of treated cells. (Tetrazolium dyes change colour on reduction, which living cells bring about.)
Data set [6] concerns lipid-enveloped viruses. Briefly: organism not typed. The format is cell-based. The settings on record: read-out: IC50 inhibition of infection of lipid-enveloped viruses.
For data set [7], the system named is cytomegalovirus (CMV, herpesvirus). The format is cell-based.
Data set [8] relates to Semliki forest virus (SFV, alphavirus). The format is cell-based.
The mark [9] stands for this setting: Human immunodeficiency virus 1, number of experiments in parentheses, read-out: IC50 ± STD (nM) (N = x) HIV.
The mark [10] stands for this setting: number of experiments in parentheses.

What is called IC50 is the midpoint of a concentration-inhibition curve. As usually defined, the half-life is how long it takes for the measured level to halve. What is called EC90 is the concentration needed for an effect of 90%.

Where two headings read alike, the source gives them in different places.

As for `CCN1C(=S)O/C(=C\c2ccc(-c3ccc(OC)cc3)n2C)C1=S` [JL119, (Z)-3-Ethyl-5-((5-(4-methoxyphenyl)-1-methyl-1H-pyrrole-2-yl)methylene)oxazolidine-2,4-dithione], the concentration for half-maximal inhibition (IC50) with NDV (avian paramyxovirus 1, Vero) worked out at 6 nM. Further, the “Abs Max” value in data set [1] is reported as 551 nm.

Consider `CCN1C(=S)O/C(=C\c2ccc(-c3c(OC)cccc3OC)o2)C1=S` [JL111, (Z)-3-Ethyl-5-(5-(2,6-dimethoxyphenyl)-furan-2-ylmethylene)oxazolidine-2,4-dithione], for which the concentration for half-maximal inhibition (IC50) in the data set with NDV (avian paramyxovirus 1, Vero) was determined as 12 nM. Also, the “Abs Max” value in [1] was 499 nm.

As to `Cc1c(C)c2c(c(C)c1O)CC[C@@](C)(CCC[C@H](C)CCC[C@H](C)CCCC(C)C)O2` [alpha-tocopherol, reference compound], in the data set on NDV, the “effect of antioxidant on antiviral activity of JL103” value was “blocks the antiviral activity”.

As for `CCN1C(=O)/C(=C/c2ccc(-c3ccccc3)o2)OC1=S` [JL101, (Z)-3-ethyl-5-((5-phenylfuran-2-yl)methylene)-2-thioxooxazolidine-4-one], the IC50 with HIV (setting [9]) is above 1000 nM; in the data set with NDV (avian paramyxovirus 1, Vero) it was above 1000 nM.

For the molecule `CCN1C(=O)O/C(=C\c2ccc(-c3ccccc3)o2)C1=O` [JL121, (Z)-3-ethyl-5-((5-phenylfuran-2-yl)methylene)oxazolidine-2,4-dione], the “IC50 ± STD (nM) (N = x) HSV” value in the data set with HSV (setting [10]) was “Not active (1)”. Moreover, the concentration for half-maximal inhibition (IC50) in the data set with NDV (avian paramyxovirus 1, Vero) is above 500000 nM. For the same molecule, the “KT × 10^−7” value in data set [2] was determined as 2.5 ± 0.2 M^−1s^−1.

As to `CCN1C(=S)OC(Cc2ccc(-c3ccccc3)o2)C1=S` (stereo not shown) [JL107], the IC50 in the data set on NDV (avian paramyxovirus 1, Vero) is 928 nM. Moreover, the “inhibition of parasite attachment and invasion” value is “most potent inhibition” with Toxoplasma gondii; “inhibited parasite attachment and invasion” with Toxoplasma gondii (listed as 107).

`CCN1C(=S)N/C(=C\c2ccc(-c3ccccc3)o2)C1=S` [JL105, (Z)-3-ethyl-5-((5-phenylfuran-2-yl)methylene)imidazolidine-2,4-dithione]: the IC50 with NDV (avian paramyxovirus 1, Vero) is above 100000 nM. In addition, in [1], the “Abs Max” value is recorded as 521 nm.

As to `CCN1C(=S)O/C(=C\c2cc3ccccc3o2)C1=S` [JL113, (Z)-5-(benzofuran-2-ylmethylene)-3-ethyloxazolidine-2,4-dithione], in the data set on NDV (avian paramyxovirus 1, Vero), the IC50 was 865 nM.

For `CCN1C(=O)/C(=C/c2ccc(-c3ccccc3)o2)NC1=S` [JL104, (Z)-3-ethyl-5-((5-phenylfuran-2-yl)methylene)-2-thioxoimidazolidin-4-one], the “IC50 ± STD (nM) (N = x) HIV” value in the data set with HIV (setting [10]) was “Not active”. Moreover, the 50% inhibitory concentration (IC50) in the data set on HSV (setting [10]) was above 500000 nM; with NDV (avian paramyxovirus 1, Vero), above 500000 nM.

With `CCN1C(=S)O/C(=C\c2ccc(-c3ccc(N(C)C)cc3)n2C)C1=S` [JL123], the IC50 was found to be 75 ± 45 nM with HSV (setting [10]) and 49 nM in the data set with NDV (avian paramyxovirus 1, Vero). The “Abs Max” value in data set [1] is 593 nm.

Turning to `CCN1C(=O)S/C(=C\c2ccc(-c3ccccc3)o2)C1=O` [JL025, reference compound], in the data set on HIV (setting [10]), the “IC50 ± STD (nM) (N = x) HIV” value is recorded as “Not active (4)”. Moreover, in the data set on HSV (setting [10]), the “IC50 ± STD (nM) (N = x) HSV” value is “Not active (1)”. Further, the “IC50 ± STD (nM) (N = x) NDV” value in the data set with NDV is “Not active (2)”. The “Abs Max” value in data set [1] was 405 nm.

Regarding `C=CCN1C(=O)/C(=C/c2ccc(-c3ccccc3)o2)SC1=S` [LJ001, reference compound], the IC50 in the data set with HIV (Human immunodeficiency virus 1, read-out: IC50 ± STD (nM) (N = x) HIV) is 183 ± 272 nM; with HSV, 35 ± 48 nM; with NDV (avian paramyxovirus 1, Vero) it was 207 nM; with lipid-enveloped viruses [3] (read-out: IC50 viral infection common for all viruses tested) it was around 1000 nM. Moreover, the absorption peak entry in data set [1] is “about 440 nm”. Also, the “Abs Max” value in data set [1] stood at 457 nm. For the same molecule, the “Relative integrated area from 400 to 700 nm” value in data set [1] was determined as 100. In addition, in data set [2], the “KT × 10^−7” value was found to be 1.0 ± 0.1 M^−1s^−1. The “HIV inactivation in packed RBC (luciferase activity, RLU)” value in the data set with HIV (IIIB) is given as “unable to inactivate HIV”. In addition, the “inhibition of parasite attachment and invasion” value in the data set on Toxoplasma gondii is reported as “highly effective”. The “IC95 viral infection common for all viruses tested” value with lipid-enveloped viruses [3] was around 10000 nM. For the same molecule, the clinical observations result in data set [4] (5 mg/kg ip single dose) was “appeared normal”; in data set [4] (10 mg/kg ip single dose), 2 were sacrificed in moribund condition and 1 was found dead. Moreover, in data set [5] (10 mg/kg iv, 5 mg/kg ip, 10 and 100 mg/kg po), the exposure entry is reported as “minimal exposure”. This molecule also had an elimination in data set [5] (mice, single dose) of around 700 mL/min/kg. The same molecule showed a half-life in data set [5] (mice, single dose) of 12 min.

Take `CCN1C(=S)O/C(=C\c2ccc(-c3c(OC)cc(OC)cc3OC)o2)C1=S` [JL122, (Z)-3-Ethyl-5-(5-(2,4,6-tiimethoxyphenyl)-furan-2-ylmethylene)oxazolidine-2,4-dithione]: the IC50 in the data set with HSV (setting [10]) turned out to be 3 ± 1 nM; with NDV (avian paramyxovirus 1, Vero), 1 nM. The “Abs Max” value in data set [1] is on record as 547 nm. In the data set on HIV (IIIB), the “HIV inactivation in packed RBC (luciferase activity, RLU)” value was “dramatically decrease the luciferase activity to near-background levels”.

As for `CCN1C(=S)O/C(=C\c2ccc(-c3ccccc3)o2)C1=S` [JL102, (Z)-3-ethyl-5-((5-phenylfuran-2-yl)methylene)oxazolidine-2,4-dithione], in the data set with NDV, the “EC50 fold lower than LJ001's” value was “about 10 fold”. Further, the EC50 in the data set with Hela cells was around 400 nM. Moreover, the 50% inhibitory concentration (IC50) in the data set with lipid-enveloped viruses [6] is around 40 nM. In addition, the “inhibition of CMV infection” value in data set [7] was “inhibit the infection”. Further, the “inhibition of SFV infection” value in data set [8] is “inhibit the infection”. For the same molecule, the clinical observations result in data set [4] (10 mg/kg ip single dose) is reported as “appeared normal”. In addition, the “toxicity in vivo compared to the rhodanine derivatives” value in [4] is listed as “less toxicity”. Further, the bioavailability is around 50% in data set [5] (ip, 10 mg/kg) and 3.1 to 105% in [5] (po, 100 mg/kg).

Turning to `CCN1C(=S)O/C(=C\c2ccc(-c3ccccc3OC)o2)C1=S` [JL103, (Z)-3-ethyl-5-((5-(2-methoxyphenyl)furan-2-yl)methylene)oxazolidine-2,4-dithione], the IC50 is 3 nM in the data set on HIV (setting [9]); 2.3 ± 2.7 nM with HSV (setting [10]); 7 nM in the data set with NDV (avian paramyxovirus 1, Vero); around 5 nM in the data set with lipid-enveloped viruses [6]. In the data set on NDV, the “EC50 fold lower than compound 1's” value is listed as “about 10 fold”. Moreover, the EC90 in the data set with NDV (avian paramyxovirus 1, Vero, read-out: EC90 antiviral activity on NDV) is around 15 nM. Further, the absorption peak entry in data set [1] is “about 500 nm”. For the same molecule, the “Abs Max” value in data set [1] turned out to be 516 nm. Further, in data set [1], the “Relative integrated area from 400 to 700 nm” value was 153. The “light absorbed relative to LJ001 (integrated area 400-700 nm)” value in [1] (times more than LJ001) is on record as 1.53 times. The “KT × 10^−7” value in data set [2] was 7.8 ± 0.6 M^−1s^−1. Also, the “inhibition of CMV infection” value in data set [7] is listed as “inhibit the infection”. Further, in data set [8], the “inhibition of SFV infection” value is on record as “inhibit the infection”. For the same molecule, the “inhibition of parasite attachment and invasion” value in the data set on Toxoplasma gondii was “inhibited parasite attachment and invasion”. Also, the clinical observations entry in [4] (10 mg/kg ip single dose) is reported as “appeared normal”. Besides, in data set [4], the “toxicity in vivo compared to the rhodanine derivatives” value was “less toxicity”. Moreover, the bioavailability was around 50% in data set [5] (ip, 10 mg/kg) and 3.1 to 105% in [5] (po, 100 mg/kg).

Turning to `CCN1C(=S)O/C(=C\c2ccc(-c3cccc(OC)c3)o2)C1=S` [JL117, (Z)-3-Ethyl-5-(5-(3-methoxyphenyl)-furan-2-ylmethylene)oxazolidine-2,4-dithione], the IC50 turned out to be 20 nM in the data set on HSV (setting [10]) and 5 nM in the data set with NDV (avian paramyxovirus 1, Vero). Besides, the “Abs Max” value in data set [1] is given as 504 nm.
